Results on 4 compounds are retold here after patent US7585877B2, “Aminophenyl derivatives as selective androgen receptor modulators” (Acadia Pharmaceuticals, Inc., priority 2005, dated 2009).

SMILES strings stand for the structures. pEC50: −log10 of the molar value. Where a name gives a salt, the structure may show the parent alone. Read-outs that look alike come from different tables or passages of the source.

For data set [1], the system named is castrated male Sprague Dawley rats. Kind of data set: In vivo activity in castrated rats: wet tissue weights. Also noted: species or system rat. The method, then: (§1) Test compounds of formula I are administered p.o. daily for two weeks to castrated male Sprague Dawley rats (n=3). The effects of the test compounds (1, 3, 10, 30 mg/kg) are compared to testosterone propionate (1 and 3 mg/kg s.c.; positive control) and vehicle (10% Tween80; negative control). Blood and wet weights of prostate gland and seminal vesicle are measured after sacrifice that occurs 24 hours after the last dose. Blood is collected in heparin collection tubes after sacrifice that occurred 24 hours after the last dose. Blood is centrifuged and plasma collected and plasma samples frozen.

The target of the next data set is T1, Androgen AR receptor (Homo sapiens, UniProt P10275).
T1 construct: expressed in transfected cells; host or cells: NIH3T3 cells
T1 sequence (P10275 1-920): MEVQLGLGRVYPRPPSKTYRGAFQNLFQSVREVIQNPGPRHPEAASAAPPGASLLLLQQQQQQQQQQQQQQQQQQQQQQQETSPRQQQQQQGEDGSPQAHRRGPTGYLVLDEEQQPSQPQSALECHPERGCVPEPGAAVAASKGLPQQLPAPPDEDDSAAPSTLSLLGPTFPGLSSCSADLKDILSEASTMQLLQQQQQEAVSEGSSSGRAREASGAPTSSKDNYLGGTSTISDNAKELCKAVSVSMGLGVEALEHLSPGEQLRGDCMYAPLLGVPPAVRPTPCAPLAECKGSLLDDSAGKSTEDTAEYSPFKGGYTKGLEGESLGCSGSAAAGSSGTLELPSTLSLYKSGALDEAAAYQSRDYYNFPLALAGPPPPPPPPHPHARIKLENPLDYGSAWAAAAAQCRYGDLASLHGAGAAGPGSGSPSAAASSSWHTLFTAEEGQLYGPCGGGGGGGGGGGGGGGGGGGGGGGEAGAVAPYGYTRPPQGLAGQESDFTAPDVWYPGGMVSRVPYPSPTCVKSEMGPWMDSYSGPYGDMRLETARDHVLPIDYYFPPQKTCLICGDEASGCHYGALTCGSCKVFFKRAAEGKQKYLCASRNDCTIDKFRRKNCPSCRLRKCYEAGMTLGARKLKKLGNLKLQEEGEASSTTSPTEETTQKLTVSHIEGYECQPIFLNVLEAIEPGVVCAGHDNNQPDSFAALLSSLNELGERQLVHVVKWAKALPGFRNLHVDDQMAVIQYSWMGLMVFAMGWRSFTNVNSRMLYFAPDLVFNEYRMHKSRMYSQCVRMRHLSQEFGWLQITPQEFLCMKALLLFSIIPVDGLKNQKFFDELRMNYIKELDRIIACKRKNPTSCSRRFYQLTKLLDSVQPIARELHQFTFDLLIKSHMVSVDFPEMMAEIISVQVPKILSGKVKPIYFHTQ
Kind of data set: Receptor Selection and Amplification Technology (R-SAT) functional receptor assay. Conditions: for Emax: read-out: % Efficacy. Format: cell-based. How it is done: The functional receptor assay, Receptor Selection and Amplification Technology (R-SAT™), was used with minor modifications from the procedure described previously (Brann, M. R., U.S. Pat. No. 5,707,798, which is hereby incorporated herein by reference in its entirety) to screen compounds for efficacy at the Androgen AR receptor. Briefly, NIH3T3 cells were grown in roller bottles to 70-80% confluence. Cells were then transfected for 12-16 h with plasmid DNAs using Polyfect (Qiagen Inc.) as per the manufacturer's protocol. R-SAT assays were typically performed by transfecting 30 ug/bottle of receptor and 50 ug/bottle of β-galactosidase plasmid DNA. All receptor and helper constructs used were in mammalian expression vectors. Helpers are defined as signaling molecules that modulate both ligand-dependent and/or ligand-independent function of the AR receptor, typically co-activators.
NIH3T3 cells were transfected for 12-16 h, then trypsinized and frozen in DMSO. Frozen cells were later thawed, plated at 10,000-40,000 cells per well of a 96 well plate containing drug. Cells were then grown in a humidified atmosphere with 5% ambient CO2 for five days. Media was then removed from the plates and marker gene activity was measured by the addition of the β-galactosidase substrate o-nitrophenyl β-D-galactopyranoside (ONPG, in PBS with 5% NP-40). The resulting colorimetric reaction was measured in a spectrophotometric plate reader (Titertek Inc.) at […]. All data were analyzed using the computer program XLFit (IDBSm).

Data set [2] deals with Rat luteinizing hormone (LH) plasma levels. Kind of data set: In vivo activity in castrated rats: plasma luteinizing hormone (ELISA). As to conditions: castrated rats (FIG. 4). The method, then:
as §1
Rat luteinizing hormone (LH) plasma levels are determined using an enzyme linked immunoabsorbent assay (ELISA) from Amersham as per manufacturer's instructions. The solid phase assay is based on the competition between unlabeled rLH and a fixed quantity of biotin labelled rLH for a limited amount of rLH specific antibody. A conjugate streptavidin/peroxidase allows for signal amplification and detection in presence of the substrate.
(In an ELISA, binding on a coated surface is turned into a signal by an enzyme label.)

Where [3] appears, read: R-SAT, transfected NIH3T3 cells.

By pEC50 is commonly meant the negative decadic logarithm of the EC50, by convention in mol/L. Low values mean a high EC50, high ones a low EC50. As for `Cc1c(N2[C@@H]3CC[C@H]2C[C@@](C)(O)C3)ccc(C#N)c1Cl` [198RL26, 2-Chloro-4-(3-endo-hydroxy-3-exo-methyl-8-azabicyclo[3.2.1]oct-8-yl)-3-methylbenzonitrile hydrochloride], the “wet tissue weights (prostate, seminal vesicle, levator ani muscle)” value in data set [1] (3 mg/kg daily s.c. (so in the source) for two weeks, castrated rats) was “did not appear to significantly alter wet tissue weights”; in data set [1] (higher doses (3 and 10 mg/kg) daily, castrated rats), “appeared to significantly increase wet tissue weights, however, not to the extent of TP”. Besides, the “dose relative to TP at which negative side effects (increased seminal vesicle and prostate size) become evident” value in data set [1] (castrated rats, two weeks daily dosing) is “at least 100 × of TP”. The compound also gave a pEC50 on Androgen AR receptor of 8.80. The Emax at Androgen AR receptor (setting [3]) amounted to 79%. Further, the “plasma LH levels” value in data set [2] (10 mg/kg p.o. for 14 days) is recorded as “complete reversal”; in data set [2] (various doses, p.o. for 14 days), “dose-dependent suppression of plasma LH levels”.

At Androgen AR receptor, `Cc1c(N2[C@@H]3CC[C@H]2C[C@@H](O)C3)ccc(C#N)c1Cl` [165RL90, 2-Chloro-4-(3-endo-hydroxy-8-azabicyclo[3.2.1]octan-8-yl)-3-methylbenzonitrile, hydrochloride] showed a pEC50 of 8.70. Also, on Androgen AR receptor (setting [3]), the Emax is 81%.

Take `Cc1c(N2[C@@H]3CC[C@H]2C[C@@H](O)C3)ccc([N+](=O)[O-])c1Cl` [173FBA73bL, endo-8-(3-chloro-2-methyl-4-nitrophenyl)-8-azabicyclo[3.2.1]octan-3-ol]: the Emax at Androgen AR receptor (setting [3]) came to 80%. In addition, the EC50 at Androgen AR receptor (R-SAT, transfected NIH3T3 cells, read-out: pEC50 (converted)) is 3.16 nM.

Take `CCC(=O)O[C@H]1CC[C@H]2[C@@H]3CCC4=CC(=O)CC[C@]4(C)[C@H]3CC[C@]12C` [testosterone propionate, reference compound]: the “prostate wet tissue weight as compared to vehicle treatment” value in data set [1] (1 mg/kg daily s.c. for two weeks, castrated rats (FIG. 1)) is “significant increases”. In addition, in data set [1] (1 mg/kg daily s.c. for two weeks, castrated rats (FIG. 2)), the “seminal vesicle wet tissue weight as compared to vehicle treatment” value is reported as “significant increases”. The “levator ani muscle wet tissue weight as compared to vehicle treatment” value in data set [1] (1 mg/kg daily s.c. for two weeks, castrated rats (FIG. 3)) is “significant increases”. For the same compound, the “plasma LH levels” value in data set [2] (1 mg/kg, s.c. for 14 days) is on record as “restored LH levels to those obtained in naive rats”.
